The values that follow come from ChEMBL document CHEMBL1137310, “Stereoselective chemoenzymatic synthesis of the four stereoisomers of l-2-(2-carboxycyclobutyl)glycine and pharmacological characterization at human excitatory amino acid transporter subtypes 1, 2, and 3” (J Med Chem, 2006).

Assay [1] has as its target Excitatory amino acid transporter 1 (Homo sapiens) (UniProt P43003). The assay is described as follows: Substrate activity at human EAAT1 expressed in HEK293 cells relative to glutamate by FLIPR membrane potential assay. In kind it is functional, cell-based.
Assay [2] has the same target. The assay is described as follows: Substrate activity at human EAAT1 expressed in HEK293 cells by FLIPR membrane potential assay. In kind it is functional, cell-based.
The target in assay [3] is T1, Excitatory amino acid transporter 3 (Homo sapiens) (UniProt P43005).
T1 sequence (whole entry): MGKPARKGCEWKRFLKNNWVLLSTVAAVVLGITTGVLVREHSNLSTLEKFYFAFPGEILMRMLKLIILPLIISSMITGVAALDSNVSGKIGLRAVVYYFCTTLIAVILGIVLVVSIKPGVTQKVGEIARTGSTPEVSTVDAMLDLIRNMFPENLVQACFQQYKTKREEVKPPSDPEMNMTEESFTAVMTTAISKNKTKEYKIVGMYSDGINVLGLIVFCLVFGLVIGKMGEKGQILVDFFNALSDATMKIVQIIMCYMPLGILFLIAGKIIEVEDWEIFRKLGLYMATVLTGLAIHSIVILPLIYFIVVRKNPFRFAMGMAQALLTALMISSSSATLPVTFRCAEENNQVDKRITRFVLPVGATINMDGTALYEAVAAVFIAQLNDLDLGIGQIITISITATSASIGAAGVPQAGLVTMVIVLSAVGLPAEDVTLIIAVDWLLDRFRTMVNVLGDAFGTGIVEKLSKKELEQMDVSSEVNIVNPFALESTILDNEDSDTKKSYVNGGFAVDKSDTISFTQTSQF
Kind of assay: Substrate activity at human EAAT3 expressed in HEK293 cells at 1000 uM relative to glutamate by FLIPR membrane potential assay. In kind it is functional, cell-based.

The target in assay [4] is Excitatory amino acid transporter 1 (Homo sapiens) (UniProt P43003). The assay is described as follows: Substrate activity at human EAAT1 expressed in HEK293 cells at 1000 uM relative to glutamate by FLIPR membrane potential assay. It counts as functional, cell-based.
The target in assay [5] is Excitatory amino acid transporter 2 (Homo sapiens) (UniProt P43004). As to conditions: HEK293.
Description: Substrate activity at human EAAT2 expressed in HEK293 cells by FLIPR membrane potential assay
The target in assay [6] is T1, Excitatory amino acid transporter 3 (Homo sapiens). The assay is described as follows: Substrate activity at human EAAT3 expressed in HEK293 cells by FLIPR membrane potential assay. In kind it is functional, cell-based.

Excitatory amino acid transporter 1 (Homo sapiens), sequence (P43003 whole entry): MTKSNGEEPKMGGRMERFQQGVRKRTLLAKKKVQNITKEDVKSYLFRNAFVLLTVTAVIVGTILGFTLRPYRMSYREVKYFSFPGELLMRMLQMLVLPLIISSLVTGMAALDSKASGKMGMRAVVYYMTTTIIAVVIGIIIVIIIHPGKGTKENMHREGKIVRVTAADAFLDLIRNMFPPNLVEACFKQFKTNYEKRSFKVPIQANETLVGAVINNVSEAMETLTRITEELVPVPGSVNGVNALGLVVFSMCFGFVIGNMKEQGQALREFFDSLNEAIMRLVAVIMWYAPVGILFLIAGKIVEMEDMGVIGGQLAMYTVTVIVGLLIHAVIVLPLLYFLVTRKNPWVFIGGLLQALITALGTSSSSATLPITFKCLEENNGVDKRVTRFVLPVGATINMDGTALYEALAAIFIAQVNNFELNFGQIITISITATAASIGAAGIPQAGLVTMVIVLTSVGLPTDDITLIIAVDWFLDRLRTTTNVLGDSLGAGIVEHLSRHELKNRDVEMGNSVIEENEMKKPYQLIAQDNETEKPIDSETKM
Excitatory amino acid transporter 2 (Homo sapiens), sequence (P43004 whole entry): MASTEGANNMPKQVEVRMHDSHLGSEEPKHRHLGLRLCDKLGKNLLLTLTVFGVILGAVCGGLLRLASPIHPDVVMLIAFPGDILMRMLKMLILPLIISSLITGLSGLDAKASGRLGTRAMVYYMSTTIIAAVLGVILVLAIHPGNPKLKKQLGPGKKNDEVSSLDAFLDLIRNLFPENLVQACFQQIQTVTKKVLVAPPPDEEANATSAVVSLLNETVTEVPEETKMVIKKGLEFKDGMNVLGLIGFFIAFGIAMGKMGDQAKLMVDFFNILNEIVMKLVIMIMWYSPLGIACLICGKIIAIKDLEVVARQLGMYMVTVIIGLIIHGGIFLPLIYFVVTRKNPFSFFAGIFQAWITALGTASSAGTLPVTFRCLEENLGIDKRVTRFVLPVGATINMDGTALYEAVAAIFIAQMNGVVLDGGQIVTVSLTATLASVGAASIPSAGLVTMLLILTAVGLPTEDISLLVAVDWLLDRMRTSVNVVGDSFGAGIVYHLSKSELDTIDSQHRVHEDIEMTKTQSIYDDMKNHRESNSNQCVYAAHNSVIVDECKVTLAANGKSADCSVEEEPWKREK

Turning to `N[C@H](C(=O)O)[C@@H]1CC[C@H]1C(=O)O`, in assay [1], the Activity was 94%. Besides, in assay [2], the pKm was found to be 4.

Turning to `N[C@H](C(=O)O)[C@H]1CC[C@@H]1C(=O)O`, the values for the Activity in assay [3] and in assay [4] were 48% and 72%, respectively.

Turning to `N[C@@H](CCC(=O)O)C(=O)O`, the pKm in assay [5] is 4.7; in assay [2], 5.1; in assay [6], 5.
